What was measured:
Assay in all cases: selective drug sensitivity score (sDSS, relative to normal bone marrow) (sDSS (score)); higher = more potent and effective on the cell line relative to normal bone marrow cells
Settings in all cases: 72 h
[1] = tested on: LC4-1
[2] = tested on: RPMI-8402
[3] = tested on: NALM-6
[4] = tested on: MN-60
[5] = tested on: MHH-CALL-3
[6] = tested on: KASUMI-2
[7] = tested on: P12-ICHIKAWA
[8] = tested on: REH
[9] = tested on: HAL-01
[10] = tested on: ALL-PO
[11] = tested on: PF-382
[12] = tested on: MHH-CALL-2
[13] = tested on: MOLT-4
[14] = tested on: DND-41
[15] = tested on: KASUMI-10
[16] = tested on: COG-LL-319h
[17] = tested on: SEM cells
[18] = tested on: COG-LL-394h
[19] = tested on: CCRF-CEM
[20] = tested on: MOLT-14
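Also: ALL cell lines in 384-well plates, five doses spanning 10,000-fold, each plate scaled between vehicle and 100 µmol/L benzalkonium chloride controls, sDSS an adapted area-under-curve metric.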

Row | SMILES | selective drug sensitivity score [1] | selective drug sensitivity score [2] | selective drug sensitivity score [3] | selective drug sensitivity score [4] | selective drug sensitivity score [5] | selective drug sensitivity score [6] | selective drug sensitivity score [7] | selective drug sensitivity score [8] | selective drug sensitivity score [9] | selective drug sensitivity score [10] | selective drug sensitivity score [11] | selective drug sensitivity score [12] | selective drug sensitivity score [13] | selective drug sensitivity score [14] | selective drug sensitivity score [15] | selective drug sensitivity score [16] | selective drug sensitivity score [17] | selective drug sensitivity score [18] | selective drug sensitivity score [19] | selective drug sensitivity score [20]
1 | O=C(O)c1ccc(O)c2ncccc12 [IOX-1] (top concentration 100000 nM) | 3.24 | 2.64 | 3.74 | 4.54 | 0.24 | 2.04 | 4.34 | 2.54 | 3.34 | 3.74 | 4.44 | 3.64 | 3.34 | 6.24 | 1.54 | 2.94 | 1.84 | -1.56 | 3.74 | 5.64
2 | CC(=O)[C@]1(O)Cc2c(O)c3c(c(O)c2[C@@H](O[C@H]2C[C@H](N)[C@H](O)[C@H](C)O2)C1)C(=O)c1ccccc1C3=O [Idarubicin] (top concentration 1000 nM) | 4.04 | 10.5 | 7.94 | -2.26 | 14.6 | 11.5 | 8.24 | 11.8 | 7.24 | 1.64 | 1.24 | 8.04 | 7.74 | 0.34 | 8.14 | 16.7 | 6.74 | 7.94 | 8.84 | 10.5
3 | COc1cc2nccc(Oc3ccc(NC(=O)NC4CC4)c(Cl)c3)c2cc1C(N)=O [Lenvatinib] (top concentration 2500 nM) | -0.24 | -0.24 | -0.24 | -0.24 | -0.24 | -0.14 | -0.24 | -0.24 | 0.76 | 3.86 | -0.24 | 1.46 | 0.36 | -0.24 | 1.86 | 6.16 | 0.36 | 0.26 | 0.16 | -0.14
4 | N#Cc1ccc(C(c2ccc(C#N)cc2)n2cncn2)cc1 [Letrozole] (top concentration 10000 nM) | -0.04 | -0.04 | -0.04 | -0.04 | -0.04 | 0.76 | -0.04 | 4.76 | -0.04 | -0.04 | -0.04 | -0.04 | -0.04 | 1.06 | -0.04 | -0.04 | -0.04 | -0.04 | -0.04 | -0.04
5 | CCNCCS(=O)(=O)NC[C@@]1(c2ccccc2)SC(NC(=O)C(C)(C)C)=NN1C(=O)C(C)(C)C [Litronesib] (top concentration 1000 nM) | 19.8 | 18.7 | 21.5 | 4.64 | 7.44 | 18.9 | 18.5 | 22.3 | 1.94 | 14.8 | 13.7 | 15.6 | 13.8 | 8.64 | 14.7 | 22.4 | 20.5 | 7.74 | 19.8 | 20.7
6 | CC[C@H](C)C(=O)O[C@H]1C[C@@H](C)C=C2C=C[C@H](C)[C@H](CC[C@@H]3C[C@@H](O)CC(=O)O3)[C@H]21 [Lovastatin] (top concentration 10000 nM) | 0.8 | 1.8 | -0.1 | -0.1 | 8.4 | -0.1 | 1.4 | 1 | 2.5 | -0.1 | 0 | 8.7 | -0.1 | -0.1 | -0.1 | -0.1 | 5 | -0.1 | 0 | -0.1
7 | Cn1cc(-c2cnn3c(N)c(Br)c([C@@H]4CCCNC4)nc23)cn1 [MK-8776] (top concentration 2500 nM) | 0.54 | 1.44 | -1.36 | -1.46 | 0.04 | -1.46 | -0.36 | 0.24 | -0.46 | 4.44 | 0.14 | 2.54 | -1.46 | 3.84 | 2.24 | 1.04 | 2.64 | -0.96 | 1.04 | -1.26
8 | Cc1cnc(-c2ccccc2C(C)C)nc1NCc1ccc(-n2ccnn2)cc1 [ML323] (top concentration 10000 nM) | 0.54 | 3.44 | 1.84 | 0.04 | -0.36 | 0.14 | 1.74 | 3.44 | 0.04 | 3.14 | 3.04 | 0.24 | 1.34 | 1.34 | -0.36 | 1.14 | 1.14 | 3.64 | 0.44 | 1.94
9 | O=C(CCNC(=O)c1ccc(OC(F)(F)F)cc1)N[C@@H]1CCCc2ccccc21 [ML390] (top concentration 50000 nM) | 7.4 | 12.6 | 10.8 | 16.8 | -1.2 | 2.9 | 18.5 | 16.1 | 4.9 | 5.3 | 9.8 | 4.1 | 15.2 | 5.4 | 4.1 | 16.9 | 10.8 | -1.2 | 9.3 | 16.6
10 | CN(C)C(=N)NC(=N)N [Metformin] (top concentration 100000 nM) | -0.02 | -0.02 | -0.02 | -0.02 | -0.02 | -0.02 | -0.02 | 0.08 | -0.02 | -0.02 | -0.02 | 0.58 | -0.02 | 0.08 | -0.02 | -0.02 | -0.02 | -0.02 | -0.02 | -0.02

Source: the supplement of paper PMC8967900
